Activity calls are given as the source filed them. The calls are words filed in the database; no cut-off is given here.
Legend:
[1] = molecular target: Vascular endothelial growth factor receptor 1 (Homo sapiens, UniProt P17948); experiment: Inhibition of VEGFR1 (unknown origin)
[2] = molecular target: Vascular endothelial growth factor receptor 2 (Homo sapiens, UniProt P35968); experiment: Inhibition of VEGFR2 (unknown origin)
[3] = molecular target: Platelet-derived growth factor receptor beta (Homo sapiens, UniProt P09619); experiment: Inhibition of PDGFRb (unknown origin)
[4] = molecular target: Platelet-derived growth factor receptor alpha (Homo sapiens, UniProt P16234); experiment: Inhibition of PDGFRa (unknown origin)
[5] = tested on: MDA-MB-231; experiment: Cytotoxicity against human MDA-MB-231 cells assessed as reversal of cell viability at 200 uM after 72 hrs by MTT assay in presence of SAHA; assay type: functional
[6] = tested on: MDA-MB-231; experiment: Cytotoxicity against human MDA-MB-231 cells assessed as reversal of cell viability at 10 uM after 72 hrs by MTT assay in presence of SAHA; assay type: functional, cell-based
[7] = molecular target: Histone deacetylase 4 (Homo sapiens, UniProt P56524); experiment: Inhibition of HDAC4 (unknown origin)
[8] = molecular target: Histone deacetylase 5 (Homo sapiens, UniProt Q9UQL6); experiment: Inhibition of HDAC5 (unknown origin)
[9] = molecular target: T1, Histone deacetylase 7 (Homo sapiens, UniProt Q8WUI4); experiment: Inhibition of HDAC7 (unknown origin)
T1 sequence (Q8WUI4 whole entry): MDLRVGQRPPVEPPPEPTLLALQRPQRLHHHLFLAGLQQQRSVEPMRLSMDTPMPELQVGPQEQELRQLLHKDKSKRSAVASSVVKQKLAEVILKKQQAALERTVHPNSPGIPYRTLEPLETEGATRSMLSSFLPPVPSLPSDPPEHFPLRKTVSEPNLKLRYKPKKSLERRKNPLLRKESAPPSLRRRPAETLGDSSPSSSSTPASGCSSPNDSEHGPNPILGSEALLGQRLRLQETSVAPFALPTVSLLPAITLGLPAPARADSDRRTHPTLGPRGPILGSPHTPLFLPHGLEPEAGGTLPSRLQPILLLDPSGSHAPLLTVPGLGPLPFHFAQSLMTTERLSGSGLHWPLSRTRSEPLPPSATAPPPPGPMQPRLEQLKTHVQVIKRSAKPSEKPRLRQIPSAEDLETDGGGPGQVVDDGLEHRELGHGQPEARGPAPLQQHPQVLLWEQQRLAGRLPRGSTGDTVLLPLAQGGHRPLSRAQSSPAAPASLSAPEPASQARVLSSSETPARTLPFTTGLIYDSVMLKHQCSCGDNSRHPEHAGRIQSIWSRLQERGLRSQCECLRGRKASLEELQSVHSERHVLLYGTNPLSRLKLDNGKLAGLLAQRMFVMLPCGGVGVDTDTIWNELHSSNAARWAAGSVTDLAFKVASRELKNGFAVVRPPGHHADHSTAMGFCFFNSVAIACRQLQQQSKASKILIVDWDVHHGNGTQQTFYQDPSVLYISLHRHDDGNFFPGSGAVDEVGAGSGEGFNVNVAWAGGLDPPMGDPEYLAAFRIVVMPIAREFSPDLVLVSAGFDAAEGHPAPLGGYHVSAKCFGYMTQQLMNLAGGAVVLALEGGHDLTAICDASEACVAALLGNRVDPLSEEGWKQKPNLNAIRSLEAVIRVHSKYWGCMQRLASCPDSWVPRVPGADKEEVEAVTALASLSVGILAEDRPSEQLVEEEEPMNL

[10] = molecular target: Histone deacetylase 9 (Homo sapiens, UniProt Q9UKV0); experiment: Inhibition of HDAC9 (unknown origin)
[11] = molecular target: Histone deacetylase 1 (Homo sapiens, UniProt Q13547); experiment: Inhibition of HDAC1 (unknown origin)
[12] = molecular target: Histone deacetylase 2 (Homo sapiens, UniProt Q92769)
[13] = molecular target: Histone deacetylase 3 (Homo sapiens, UniProt O15379); experiment: Inhibition of HDAC3 (unknown origin)
[14] = molecular target: T2, Protein deacetylase HDAC6 (Homo sapiens, UniProt Q9UBN7); experiment: Inhibition of HDAC6 (unknown origin)
T2 sequence (Q9UBN7 whole entry): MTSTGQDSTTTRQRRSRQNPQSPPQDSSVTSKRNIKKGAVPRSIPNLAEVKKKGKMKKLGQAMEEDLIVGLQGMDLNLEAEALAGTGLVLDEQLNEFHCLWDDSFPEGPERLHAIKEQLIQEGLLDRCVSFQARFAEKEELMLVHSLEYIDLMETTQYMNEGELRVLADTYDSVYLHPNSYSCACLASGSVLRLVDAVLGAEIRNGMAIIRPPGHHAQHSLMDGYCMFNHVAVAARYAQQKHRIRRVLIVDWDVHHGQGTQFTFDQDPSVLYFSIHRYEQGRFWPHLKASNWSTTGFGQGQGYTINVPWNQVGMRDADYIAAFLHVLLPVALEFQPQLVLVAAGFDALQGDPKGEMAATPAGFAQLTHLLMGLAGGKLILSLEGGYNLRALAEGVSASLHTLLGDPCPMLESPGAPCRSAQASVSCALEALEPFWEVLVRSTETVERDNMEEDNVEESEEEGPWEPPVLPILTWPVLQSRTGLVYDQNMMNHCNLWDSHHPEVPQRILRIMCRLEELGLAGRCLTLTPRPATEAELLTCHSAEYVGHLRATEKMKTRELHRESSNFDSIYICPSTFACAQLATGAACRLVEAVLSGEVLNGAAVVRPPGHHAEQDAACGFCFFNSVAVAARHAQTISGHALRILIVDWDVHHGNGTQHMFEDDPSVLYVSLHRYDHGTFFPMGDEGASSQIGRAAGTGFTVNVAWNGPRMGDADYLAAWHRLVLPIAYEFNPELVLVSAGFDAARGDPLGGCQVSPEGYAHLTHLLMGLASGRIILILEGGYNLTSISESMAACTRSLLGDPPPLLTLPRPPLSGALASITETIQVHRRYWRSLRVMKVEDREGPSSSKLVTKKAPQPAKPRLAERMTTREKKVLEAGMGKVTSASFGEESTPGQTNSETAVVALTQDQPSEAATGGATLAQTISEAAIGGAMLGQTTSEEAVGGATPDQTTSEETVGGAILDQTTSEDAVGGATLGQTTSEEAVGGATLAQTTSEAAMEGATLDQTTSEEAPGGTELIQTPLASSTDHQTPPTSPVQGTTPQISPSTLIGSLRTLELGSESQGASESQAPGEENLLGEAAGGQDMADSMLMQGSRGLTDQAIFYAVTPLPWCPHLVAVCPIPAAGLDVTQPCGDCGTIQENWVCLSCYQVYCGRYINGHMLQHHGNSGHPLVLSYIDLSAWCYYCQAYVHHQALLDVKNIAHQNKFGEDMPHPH

[15] = molecular target: T3, Histone deacetylase 8 (Homo sapiens, UniProt Q9BY41); experiment: Inhibition of HDAC8 (unknown origin)
T3 sequence (Q9BY41 whole entry): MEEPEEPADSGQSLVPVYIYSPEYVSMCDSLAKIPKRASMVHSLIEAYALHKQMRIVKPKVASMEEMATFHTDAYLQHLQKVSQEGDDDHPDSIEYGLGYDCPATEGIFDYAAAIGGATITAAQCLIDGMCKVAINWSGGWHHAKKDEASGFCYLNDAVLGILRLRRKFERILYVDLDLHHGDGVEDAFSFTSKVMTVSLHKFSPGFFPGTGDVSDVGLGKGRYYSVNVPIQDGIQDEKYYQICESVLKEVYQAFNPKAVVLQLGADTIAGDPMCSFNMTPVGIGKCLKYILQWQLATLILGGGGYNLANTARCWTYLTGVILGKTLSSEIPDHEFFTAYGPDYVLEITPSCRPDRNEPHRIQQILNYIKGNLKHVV

[16] = molecular target: Histone deacetylase; assay type: cell-based, Homo sapiens; conditions: hela
[17] = molecular target: Histone deacetylase (Homo sapiens) (UniProt Q13547+O15379+Q9UBN7+Q92769+Q9UQL6+Q8WUI4+Q9BY41+Q96DB2+P56524+Q9UKV0+Q969S8); experiment: Inhibition of HDAC isolated from human HeLa cells at 1 uM by fluorimetric assay; assay type: cell-free
[18] = species: Xenopus laevis; conditions: at 10 to 100 µM

Histone deacetylase 5, sequence (Q9UQL6 whole entry): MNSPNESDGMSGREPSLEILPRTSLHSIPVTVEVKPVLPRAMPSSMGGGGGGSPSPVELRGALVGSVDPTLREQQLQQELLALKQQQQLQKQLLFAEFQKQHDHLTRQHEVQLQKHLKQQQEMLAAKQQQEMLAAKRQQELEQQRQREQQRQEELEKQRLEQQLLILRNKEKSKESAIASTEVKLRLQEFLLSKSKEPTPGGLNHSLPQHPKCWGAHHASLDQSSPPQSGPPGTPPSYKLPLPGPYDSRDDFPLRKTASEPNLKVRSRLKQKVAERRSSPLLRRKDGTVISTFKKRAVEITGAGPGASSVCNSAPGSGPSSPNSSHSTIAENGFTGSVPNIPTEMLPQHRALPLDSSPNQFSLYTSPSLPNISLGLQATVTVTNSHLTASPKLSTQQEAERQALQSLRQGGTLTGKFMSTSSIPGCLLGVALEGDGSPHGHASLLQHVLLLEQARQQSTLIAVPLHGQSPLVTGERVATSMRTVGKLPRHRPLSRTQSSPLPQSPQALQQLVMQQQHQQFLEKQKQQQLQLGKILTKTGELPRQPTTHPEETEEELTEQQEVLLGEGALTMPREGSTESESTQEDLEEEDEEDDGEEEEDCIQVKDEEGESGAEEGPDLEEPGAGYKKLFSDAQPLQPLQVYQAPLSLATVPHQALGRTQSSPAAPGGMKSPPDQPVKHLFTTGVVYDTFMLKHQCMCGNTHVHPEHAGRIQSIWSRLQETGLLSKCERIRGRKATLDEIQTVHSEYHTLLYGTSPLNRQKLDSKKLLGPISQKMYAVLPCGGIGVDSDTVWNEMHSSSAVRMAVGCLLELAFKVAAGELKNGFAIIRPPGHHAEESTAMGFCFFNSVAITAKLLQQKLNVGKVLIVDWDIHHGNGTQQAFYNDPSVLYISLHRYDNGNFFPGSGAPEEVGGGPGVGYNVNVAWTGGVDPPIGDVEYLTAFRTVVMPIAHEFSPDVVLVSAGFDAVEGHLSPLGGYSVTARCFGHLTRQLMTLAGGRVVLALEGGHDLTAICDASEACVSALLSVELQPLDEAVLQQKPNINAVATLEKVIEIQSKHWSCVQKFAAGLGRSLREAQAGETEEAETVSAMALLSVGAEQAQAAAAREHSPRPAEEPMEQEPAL
Histone deacetylase 3, sequence (O15379 whole entry): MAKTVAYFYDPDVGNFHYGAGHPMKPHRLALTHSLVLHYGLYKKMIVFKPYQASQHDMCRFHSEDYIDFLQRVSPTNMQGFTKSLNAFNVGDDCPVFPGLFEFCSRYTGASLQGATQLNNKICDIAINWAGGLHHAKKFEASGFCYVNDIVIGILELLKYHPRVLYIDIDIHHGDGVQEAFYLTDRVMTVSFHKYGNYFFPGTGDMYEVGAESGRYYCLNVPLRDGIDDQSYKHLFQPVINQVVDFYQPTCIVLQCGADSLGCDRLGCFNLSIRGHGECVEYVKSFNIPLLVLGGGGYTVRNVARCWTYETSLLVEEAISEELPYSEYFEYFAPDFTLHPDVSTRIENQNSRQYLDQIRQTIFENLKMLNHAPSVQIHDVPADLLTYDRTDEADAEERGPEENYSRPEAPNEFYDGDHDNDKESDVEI
Vascular endothelial growth factor receptor 1, sequence (P17948 whole entry): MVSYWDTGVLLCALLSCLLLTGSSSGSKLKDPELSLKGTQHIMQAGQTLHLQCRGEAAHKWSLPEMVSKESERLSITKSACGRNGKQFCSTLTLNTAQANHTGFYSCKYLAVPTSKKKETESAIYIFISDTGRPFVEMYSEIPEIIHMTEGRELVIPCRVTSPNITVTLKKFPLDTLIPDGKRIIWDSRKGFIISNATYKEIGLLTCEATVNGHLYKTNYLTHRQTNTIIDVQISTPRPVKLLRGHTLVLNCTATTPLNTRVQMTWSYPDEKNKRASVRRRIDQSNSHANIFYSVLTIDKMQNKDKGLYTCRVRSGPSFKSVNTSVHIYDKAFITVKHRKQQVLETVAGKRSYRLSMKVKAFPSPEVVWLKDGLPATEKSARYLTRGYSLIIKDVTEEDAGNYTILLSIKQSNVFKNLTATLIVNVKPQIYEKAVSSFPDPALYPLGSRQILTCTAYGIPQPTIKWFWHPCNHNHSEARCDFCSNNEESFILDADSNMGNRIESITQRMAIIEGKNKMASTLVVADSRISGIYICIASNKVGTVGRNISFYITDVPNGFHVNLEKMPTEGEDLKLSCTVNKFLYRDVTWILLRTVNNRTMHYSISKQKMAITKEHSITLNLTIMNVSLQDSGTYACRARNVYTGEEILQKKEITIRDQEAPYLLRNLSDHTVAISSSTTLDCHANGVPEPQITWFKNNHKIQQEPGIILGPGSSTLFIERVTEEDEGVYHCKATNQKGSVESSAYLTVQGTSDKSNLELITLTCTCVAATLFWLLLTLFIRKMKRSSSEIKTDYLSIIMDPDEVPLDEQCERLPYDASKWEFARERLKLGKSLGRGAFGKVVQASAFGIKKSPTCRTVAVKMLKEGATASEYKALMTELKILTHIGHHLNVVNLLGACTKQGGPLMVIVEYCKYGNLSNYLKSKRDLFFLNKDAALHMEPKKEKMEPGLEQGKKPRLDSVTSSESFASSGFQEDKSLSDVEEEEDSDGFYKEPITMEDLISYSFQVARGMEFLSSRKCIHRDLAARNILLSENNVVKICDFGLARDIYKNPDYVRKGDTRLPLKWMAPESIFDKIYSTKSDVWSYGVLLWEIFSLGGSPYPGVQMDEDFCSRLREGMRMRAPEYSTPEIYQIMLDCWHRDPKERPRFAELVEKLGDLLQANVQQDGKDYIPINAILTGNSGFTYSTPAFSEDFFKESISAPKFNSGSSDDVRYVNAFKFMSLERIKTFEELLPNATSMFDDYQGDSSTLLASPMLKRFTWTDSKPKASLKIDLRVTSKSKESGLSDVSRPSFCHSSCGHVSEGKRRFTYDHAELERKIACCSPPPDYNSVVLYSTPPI
Histone deacetylase 2, sequence (Q92769 whole entry): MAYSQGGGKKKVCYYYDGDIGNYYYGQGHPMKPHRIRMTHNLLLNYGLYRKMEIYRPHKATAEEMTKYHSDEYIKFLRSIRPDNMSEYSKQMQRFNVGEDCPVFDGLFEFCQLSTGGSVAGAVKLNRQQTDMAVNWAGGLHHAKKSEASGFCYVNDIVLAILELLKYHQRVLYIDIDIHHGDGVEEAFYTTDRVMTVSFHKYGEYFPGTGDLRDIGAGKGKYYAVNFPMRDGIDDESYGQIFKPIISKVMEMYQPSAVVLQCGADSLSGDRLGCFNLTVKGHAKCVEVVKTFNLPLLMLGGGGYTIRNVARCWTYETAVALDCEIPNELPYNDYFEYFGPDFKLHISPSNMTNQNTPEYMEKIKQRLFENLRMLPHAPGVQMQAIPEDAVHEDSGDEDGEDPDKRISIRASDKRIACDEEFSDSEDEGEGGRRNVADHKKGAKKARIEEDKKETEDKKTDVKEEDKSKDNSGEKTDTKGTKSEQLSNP
Platelet-derived growth factor receptor beta, sequence (P09619 whole entry): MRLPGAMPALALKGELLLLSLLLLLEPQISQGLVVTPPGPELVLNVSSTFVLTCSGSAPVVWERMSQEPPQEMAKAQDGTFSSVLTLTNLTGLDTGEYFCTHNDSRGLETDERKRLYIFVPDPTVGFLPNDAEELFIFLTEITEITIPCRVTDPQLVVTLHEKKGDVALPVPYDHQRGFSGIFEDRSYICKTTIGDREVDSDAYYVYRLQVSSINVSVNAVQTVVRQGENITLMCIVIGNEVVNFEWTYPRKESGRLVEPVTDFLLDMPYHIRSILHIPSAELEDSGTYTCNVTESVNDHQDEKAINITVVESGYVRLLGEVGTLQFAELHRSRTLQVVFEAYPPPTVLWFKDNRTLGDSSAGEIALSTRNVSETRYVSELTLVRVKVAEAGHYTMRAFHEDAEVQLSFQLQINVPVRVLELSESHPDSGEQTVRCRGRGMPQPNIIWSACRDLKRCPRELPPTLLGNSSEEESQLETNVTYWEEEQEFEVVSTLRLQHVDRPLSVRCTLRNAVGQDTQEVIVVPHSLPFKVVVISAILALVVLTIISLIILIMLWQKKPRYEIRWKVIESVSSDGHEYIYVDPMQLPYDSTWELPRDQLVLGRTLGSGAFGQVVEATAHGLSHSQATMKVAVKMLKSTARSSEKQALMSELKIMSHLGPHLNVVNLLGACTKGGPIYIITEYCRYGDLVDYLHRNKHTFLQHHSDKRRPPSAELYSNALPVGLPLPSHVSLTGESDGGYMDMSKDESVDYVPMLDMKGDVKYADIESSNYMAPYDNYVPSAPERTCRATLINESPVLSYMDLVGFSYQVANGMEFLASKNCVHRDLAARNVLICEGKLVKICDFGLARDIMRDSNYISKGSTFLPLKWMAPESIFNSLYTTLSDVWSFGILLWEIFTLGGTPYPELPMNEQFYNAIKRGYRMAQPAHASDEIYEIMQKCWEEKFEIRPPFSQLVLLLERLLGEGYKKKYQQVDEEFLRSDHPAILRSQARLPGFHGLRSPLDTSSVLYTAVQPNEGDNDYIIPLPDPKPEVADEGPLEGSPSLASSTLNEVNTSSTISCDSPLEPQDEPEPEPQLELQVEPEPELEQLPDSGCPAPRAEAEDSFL
Histone deacetylase 1, sequence (Q13547 whole entry): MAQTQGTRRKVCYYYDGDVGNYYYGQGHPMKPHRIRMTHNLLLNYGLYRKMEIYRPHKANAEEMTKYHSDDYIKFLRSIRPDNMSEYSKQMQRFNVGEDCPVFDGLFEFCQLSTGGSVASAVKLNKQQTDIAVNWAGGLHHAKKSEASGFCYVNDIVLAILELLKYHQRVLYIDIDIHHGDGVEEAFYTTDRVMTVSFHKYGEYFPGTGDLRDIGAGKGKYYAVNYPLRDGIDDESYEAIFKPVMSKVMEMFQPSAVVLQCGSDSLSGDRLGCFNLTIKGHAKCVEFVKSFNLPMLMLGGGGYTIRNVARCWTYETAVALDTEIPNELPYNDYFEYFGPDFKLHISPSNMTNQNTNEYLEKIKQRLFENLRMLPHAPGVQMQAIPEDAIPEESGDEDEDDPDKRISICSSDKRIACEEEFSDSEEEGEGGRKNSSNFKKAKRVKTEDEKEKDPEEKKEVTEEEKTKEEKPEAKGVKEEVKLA

Structure (SMILES) | IC50 [1] | IC50 [2] | IC50 [3] | IC50 ([2]; read-out: IC50) | IC50 ([3]; read-out: IC50) | IC50 [7] | IC50 [8] | IC50 [9] | IC50 [10] | IC50 [4] | IC50 [11] | IC50 [12] | IC50 [13] | other results
CSCCCNC(=O)c1ccc2c(c1)NC(=O)/C2=C\c1[nH]c(C)cc1C | Not Active | Not Active | Not Active | – | – | – | – | – | – | – | – | – | – | –
O=C1Nc2ccc(O)cc2/C1=C/c1ccc[nH]1 | – | – | – | 405 nM | 637 nM | – | – | – | – | – | – | – | – | IC50 ([1]; read-out: IC50): 116 nM; IC50 ([4]; read-out: IC50): 406 nM; Activity [5]: 70%; Activity [6]: Active
O=C(CCCCCCC(=O)Nc1ccccc1)NO [VORINOSTAT] | – | – | – | – | – | Not Active | Not Active | Not Active | Not Active | – | – | – | – | –
Nc1ccccc1NC(=O)CCCCC(=O)Nc1ccc2c(c1)/C(=C/c1ccc[nH]1)C(=O)N2 | Not Active | Not Active | Not Active | – | – | Not Active | Not Active | Not Active | Not Active | Not Active | 1260 nM | 3290 nM | 2.42 nM | IC50 [14]: Not Active; IC50 [15]: Not Active
Cc1cc(C)c(/C=C2\C(=O)Nc3ccc(NC(=O)CCCCCCC(=O)NO)cc32)[nH]1 | Not Active | Not Active | Not Active | – | – | – | – | – | – | Not Active | – | – | – | IC50 [16]: 443 nM; inhibition [17]: > 20%
Nc1ccccc1NC(=O)CCCCCCC(=O)Nc1ccc2c(c1)/C(=C/c1ccc[nH]1)C(=O)N2 | Not Active | Not Active | Not Active | – | – | Not Active | Not Active | Not Active | Not Active | Not Active | 373 nM | 2230 nM | 394 nM | IC50 ([14]; read-out: IC50): 4610 nM; IC50 [15]: Not Active
Cc1cc(C)c(/C=C2\C(=O)Nc3ccccc32)[nH]1 | – | – | – | – | – | – | – | – | – | – | – | – | – | inhibition [18]: Active
CSCCCNC(=O)c1ccc2c(c1)/C(=C/c1[nH]c(C)cc1C)C(=O)N2 | Not Active | – | – | 38 nM | 8 nM | – | – | – | – | – | – | – | – | –
O=C(CCCCC(=O)Nc1ccc2c(c1)/C(=C/c1ccc[nH]1)C(=O)N2)NO | – | – | – | 290 nM | 518 nM | Not Active | Not Active | Not Active | Not Active | Not Active | 9.37 nM | 20.4 nM | 9.77 nM | IC50 ([1]; read-out: IC50): 205 nM; IC50 [16]: 935 nM; IC50 ([14]; read-out: IC50): 1.61 nM; IC50 ([15]; read-out: IC50): 312 nM

Reference: ChEMBL document CHEMBL3621077, “Synthesis of hybrid anticancer agents based on kinase and histone deacetylase inhibitors” (Medchemcomm, 2014)
